The values below come from patent US20100021427A1, “Use of Antiviral Peptides For Treatment of Infections Caused by Drug-Resistant HIV” (Tianjin FusoGen Pharmaceuticals, Inc., priority 2008, published 2010).

One assay deals with POPC LUVs. The experiment in a line: Isothermal titration calorimetry (ITC), peptide-lipid binding. Conditions: LUVs injected into peptide solution. As to the method: So, the POPC LUV liposome system was employing to investigate the binding activity of FS-01 to lipid membranes. Large unilamellar vesicles (LUVs) of 1-palmitoyl-2-oleoyl-sn-glycero-3-phosphocholine (POPC) liposome were prepared as previously described (Liu, S., et al. J.BIOL.CHEM. 2007; 282: 9612-9620). Briefly, 20 mg of POPC stock solution was dried under a stream of nitrogen and stored in vacuum overnight to completely remove trace amounts of organic solvent. The dried lipid film was suspended by vortexing in 2 mL PBS buffer. The resultant multilamellar vesicle suspension was freeze-thawed for 5 cycles and then successively extruded through two stacked polycarbonate filters (0.1 μm) 13 times using an Avanti miniextruder.
Solutions were degassed under vacuum prior to use. LUVs of POPC were injected into the chamber containing a peptide solution or buffer only (as a control). The heats generated in control experiments by injecting lipid vesicles into buffer without a peptide were subtracted from the heats produced in the corresponding peptide-lipid binding experiments. Data acquisition and analyses were performed using MicroCal's Origin software (Version 7.0).
(In general: ITC needs no label: the signal is the heat of the interaction.)

In the next assay the test system is 93BR020 (clade F, X4R5). In words: Primary HIV-1 isolate infection of PBMC, p24 ELISA. The format is cell-based. Particulars: p24 production, 7 days post infection. The method, then: (§1) The inhibitory activity of FS-01 against primary HIV-1 isolates was determined as previously described in (Jiang, S., et al. ANTIMICROB. AGENTS CHEMOTHER. 2004; 48: 4349-4359. The peripheral blood mononuclear cells (PBMC) were isolated from the blood of healthy donors using a standard density gradient (Histopaque-1077, Sigma) centrifugation. The cells were plated in 75-cm plastic flasks and incubated at 37° C. for 2 h. The nonadherent cells were collected and resuspended at 5×10^5/mL in RPMI 1640 medium containing 10% FBS, 5 μg of phytohemagglutinin (PHA)/mL, and 100 U of interleukin-2/mL, followed by incubation at 37° C. for 3 days. The PHA-stimulated cells were infected with the corresponding primary HIV-1 isolates at a multiplicity of infection (MOI) of 0.01 in the absence or presence of FS-01 at graded concentrations. Culture media were changed every 3 days. The supernatants were collected 7 days post infection and tested for p24 antigen by ELISA. The percent inhibition of p24 production and IC50/IC90 values were calculated.
On the technique in general: ELISA stands for enzyme-linked immunosorbent assay.

The next assay has as its system 93IN101 (clade C, R5). In words: Primary HIV-1 isolate infection of PBMC, p24 ELISA. The class given is cell-based. Particulars: p24 production, 7 days post infection. The method, then:
as §1

The subject of the next assay is 94UG103 (clade A, X4R5). The experiment in a line: Primary HIV-1 isolate infection of PBMC, p24 ELISA. The format is cell-based. Conditions: p24 production, 7 days post infection. As to the method:
as §1

The next assay concerns 92US657 (clade B, R5). In words: Primary HIV-1 isolate infection of PBMC, p24 ELISA. The format is cell-based. Conditions: p24 production, 7 days post infection. The method, then:
as §1

Another assay deals with 92UG001 (clade D, X4R5). In words: Primary HIV-1 isolate infection of PBMC, p24 ELISA. The format is cell-based. Particulars: p24 production, 7 days post infection. The method, then: as §1
A further assay has as its system 92TH009 (clade E, R5). The experiment in a line: Primary HIV-1 isolate infection of PBMC, p24 ELISA. The class given is cell-based. Conditions: p24 production, 7 days post infection. As to the method:
as §1

Another assay relates to NL4-3 (V38A/N42T). The format is cell-based, HIV-1. Particulars: T20-resistant (R) virus, MT-2 cells, p24, fourth day; read-out: IC50 (Mean ± SD). The method, then:
(§2) Two T20-sensitive and five T20-resistant strains with well defined genetic mutations conferring the resistance were used in this experiment (Rimsky, L. T., et al. J.VIROL. 1998; 72: 986-993). Briefly, 1×10^4 MT-2 cells were infected with HIV-1 isolates at 100 TCID50 (50% tissue culture infective dose) in 200 μl RPMI 1640 medium containing 10% FBS in the presence or absence of FS-01 at graded concentrations overnight. Then the culture supernatants were removed and fresh media without FS-01 were added. On the fourth day post-infection, 100 μl of culture supernatants were collected from each well, mixed with equal volumes of 5% Triton X-100 and assayed for p24 antigen by ELISA.

The next assay deals with NL4-3 (V38E/N42S). The format is cell-based, HIV-1. Conditions: T20-resistant (R) virus, MT-2 cells, p24, fourth day; read-out: IC50 (Mean ± SD). As to the method: as §2
In another assay the test system is NL4-3 (parental). The class given is cell-based, HIV-1. Particulars: T20-sensitive (S) virus, MT-2 cells, p24, fourth day; read-out: IC50 (Mean ± SD). As to the method: as §2
A further assay concerns NL4-3 (V38A). The format is cell-based, HIV-1. Conditions: T20-resistant (R) virus, MT-2 cells, p24, fourth day; read-out: IC50 (Mean ± SD). The method, then:
as §2

The subject of the next assay is NL4-3 (N42S). The class given is cell-based, HIV-1. Particulars: T20-sensitive (S) virus, MT-2 cells, p24, fourth day; read-out: IC50 (Mean ± SD). The method, then:
as §2

A further assay has as its system NL4-3 (V38A/N42D). The class given is cell-based, HIV-1. Particulars: T20-resistant (R) virus, MT-2 cells, p24, fourth day; read-out: IC50 (Mean ± SD). As to the method:
as §2

Another assay has as its system NL4-3 (N42T/N43K). The class given is cell-based, HIV-1. Particulars: T20-resistant (R) virus, MT-2 cells, p24, fourth day; read-out: IC50 (Mean ± SD). As to the method:
as §2

In assay [1] the test system is HIV-1IIIB-mediated cell-cell fusion (H9/HIV-1IIIB-infected cells with MT-2 cells). The experiment in a line: Dye transfer assay of HIV-1 mediated cell-cell fusion. The format is cell-based. Particulars: 37° C. for 2 h; read-out: IC50, inhibition of cell-cell fusion. The method, then: A dye transfer assay was used for detection of HIV-1 mediated cell-cell fusion as previously described in (Jiang, S., et al. Antimicrob.Agents Chemother. 2004; 48: 4349-4359. In brief, H9/HIV-1IIIB-infected cells were labeled with a fluorescent reagent, Calcein-AM (Molecular Probes, Inc., Eugene, OR) and then incubated with MT-2 cells (ratio =1:5) in 96-well plates at 37° C. for 2 h in the presence or absence of peptides. The fused and unfused calcein-labeled HIV-1-infected cells were counted under an inverted fluorescence microscope (Zeiss, Germany) with an eyepiece micrometer disc. The inhibition percent of cell-cell fusion and the IC50 values were calculated as described. […] The inhibitory activity of FS-01 on HIV-1-mediated infection was conducted too.

Bounds are passed on as bounds.

One may read the IC50 as the concentration needed to halve the response being measured. As a reminder, the IC90 is the concentration at which the effect reaches the 90% level.

For the substance enfuvirtide, the “binding constant to POPC LUVs” value with POPC LUVs was “about 5×10^4 M^−1”. Besides, the IC50 with 93BR020 (clade F, X4R5) (read-out: IC50 (Mean ± SD)) was 73.7 ± 8.57 nM; in the assay on 93IN101 (clade C, R5) (read-out: IC50 (Mean ± SD)), 47.2 ± 4.73 nM; with 94UG103 (clade A, X4R5) (read-out: IC50 (Mean ± SD)), 83.8 ± 12.1 nM; in the assay with 92US657 (clade B, R5) (read-out: IC50 (Mean ± SD)), 41.5 ± 8.76 nM; in the assay on 92UG001 (clade D, X4R5) (read-out: IC50 (Mean ± SD)) it was 185 ± 23.3 nM; in the assay with 92TH009 (clade E, R5) (read-out: IC50 (Mean ± SD)), 221 ± 58.3 nM. In addition, the IC50 is more than 2000 nM in the assay with NL4-3 (V38A/N42T); more than 2000 nM in the assay with NL4-3 (V38E/N42S); 22 ± 1.19 nM with NL4-3 (parental); more than 2000 nM with NL4-3 (V38A); 26.9 ± 13 nM with NL4-3 (N42S); more than 2000 nM with NL4-3 (V38A/N42D). Further, the IC50 was more than 2000 nM with NL4-3 (N42T/N43K) and 21.4 nM in assay [1]. For the same substance, the IC90 in the assay on 93BR020 (clade F, X4R5) (read-out: IC90 (Mean ± SD)) was determined as 204 ± 28 nM; in the assay with 93IN101 (clade C, R5) (read-out: IC90 (Mean ± SD)), 130 ± 16.8 nM; in the assay on 94UG103 (clade A, X4R5) (read-out: IC90 (Mean ± SD)), 151 ± 8.8 nM; in the assay with 92US657 (clade B, R5) (read-out: IC90 (Mean ± SD)), 177 ± 15.9 nM; with 92UG001 (clade D, X4R5) (read-out: IC90 (Mean ± SD)), 501 ± 70.8 nM; in the assay with 92TH009 (clade E, R5) (read-out: IC90 (Mean ± SD)), 724 ± 56.6 nM.
